Assay results reported in patent US20220395487A1, “RIG-I INNATE IMMUNE RECEPTOR ANTAGONISTS AND METHODS OF USING SAME” (YALE UNIVERSITY, priority 2019, published 2022).

What was measured:
RIG-I [1] = molecular target: T1, RIG-I (Homo sapiens, UniProt O95786); test: NADH-coupled ATPase assay; format: biochemical; set-up: The native, full-length protein was expressed and purified using methods adapted from published protocols; SUMO (pET-SUMO vector; captured on Ni-NTA) (N, cleaved yes); made in house; host or cells: Rosetta II(DE3) Escherichia coli; conditions: for IC50: NADH-coupled ATPase assay; for RIG-I ATPase inhibition, result in words: SAR discussion of Table 1 compounds
T1 sequence (O95786 1-925): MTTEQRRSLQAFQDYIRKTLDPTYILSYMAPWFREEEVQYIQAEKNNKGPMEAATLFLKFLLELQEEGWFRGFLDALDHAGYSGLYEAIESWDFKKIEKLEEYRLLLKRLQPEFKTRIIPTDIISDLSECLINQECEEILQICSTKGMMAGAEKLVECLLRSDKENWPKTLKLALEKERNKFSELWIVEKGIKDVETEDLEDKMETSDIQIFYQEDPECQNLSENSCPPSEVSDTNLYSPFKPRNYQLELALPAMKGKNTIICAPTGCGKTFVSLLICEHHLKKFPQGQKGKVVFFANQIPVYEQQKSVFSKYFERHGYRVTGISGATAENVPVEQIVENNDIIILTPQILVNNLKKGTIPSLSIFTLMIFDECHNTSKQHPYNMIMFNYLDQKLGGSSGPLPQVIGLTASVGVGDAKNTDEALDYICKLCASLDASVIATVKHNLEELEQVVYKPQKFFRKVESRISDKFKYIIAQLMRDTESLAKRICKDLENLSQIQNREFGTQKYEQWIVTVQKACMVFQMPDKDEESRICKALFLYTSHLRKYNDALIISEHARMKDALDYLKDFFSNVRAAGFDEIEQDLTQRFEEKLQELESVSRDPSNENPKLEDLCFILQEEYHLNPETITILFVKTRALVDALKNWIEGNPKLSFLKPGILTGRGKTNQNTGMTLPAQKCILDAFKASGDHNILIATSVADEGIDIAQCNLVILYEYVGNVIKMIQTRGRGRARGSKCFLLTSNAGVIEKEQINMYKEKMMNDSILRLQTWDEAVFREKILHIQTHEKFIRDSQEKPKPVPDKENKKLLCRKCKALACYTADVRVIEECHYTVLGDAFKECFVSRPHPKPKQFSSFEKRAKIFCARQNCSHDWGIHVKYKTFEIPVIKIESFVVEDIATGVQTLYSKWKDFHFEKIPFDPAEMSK
Procedure: In this case, RIG-I was activated by a well-defined synthetic RNA hairpin duplex (SLR10-OH), which was added to a final concentration of 250 nM. A coupled assay mixture consisting of 1 mM NADH, 100 U/ml lactic dehydrogenase, 500 U/ml pyruvate kinase, 2.5 mM phosphoenol pyruvic acid was added to the sample. A 12-point serial dilution of the compound of interest was added in a DMSO vehicle such that DMSO concentrations were kept at a constant 2% over the entire drug dilution. The final concentration ranges for drug dilutions varied from compound to compound based on the potency of the small molecule in question. The dilutions covered ranges from 0 to as high as 100 μM (see association figures). Samples were incubated for at least 1 hour at RT. Reactions were initiated by the addition of a 1:1 ATP/MgCl2 mix to a final concentration of 5 mM.
The rate of ATP hydrolysis was determined indirectly by monitoring the conversion of NADH to NAD^+ that results in a loss of sample absorbance at 340 nm. Absorbance was measured over a 20 min time course using a sweeping read at 10 second intervals and a gain setting of 120 on a Biotek Synergy H1 Plate Reader. Mean kobs values were extrapolated for each time course and plotted against drug concentration, then fit to Eq. (1) to determine IC50 values. Each point was a based on two trials of three biological replicates with error bars representing the Standard deviation.

RIG-I [2] = molecular target: T1, RIG-I; test: ADP-Glo ATPase assay; format: biochemical; set-up: The native, full-length protein was expressed and purified using methods adapted from published protocols; SUMO (pET-SUMO vector; captured on Ni-NTA) (N, cleaved yes); made in house; host or cells: Rosetta II(DE3) Escherichia coli; conditions: Poly I:C RNA activation, read-out: apparent IC50, RIG-I ATPase inhibition
Procedure: For the ADP-Glo assay system (V9101, Promega), RIG-I protein was diluted to 10 nM in assay buffer (25 mM MOPS pH 7.4, 150 mM NaCl, 2 mM DTT, and 2 mM Mg^2). For HTS experiments, Poly I:C RNA was used for RIG-I activation, and added to a final concentration of 0.4 μg/ml. To initiate the ATPase reactions, ATP was added to a final concentration of 200 μM. To test compounds, a 12-point serial dilution of the small molecule of interest was combined with DMSO, keeping the DMSO levels at a constant 1% throughout the entire drug dilution. Final drug concentrations ranged from 0 to 200 μM. The final volume for reaction was 20 μL per well, measured in a Corning 384-well plate (Plate ID: 3658). Reactions were allowed to proceed at room temperature for one hour, after which 2.5 μL of the ADP-Glo Reagent was added to each well. Samples were incubated at 25° C. for 45 min to terminate the ATPase reaction and deplete the remaining ATP. Next, 5 μL of Kinase Detection Reagent was added to each well in order to convert the ADP product back to ATP, which is then used as a substrate for the luminescent reporter, which was read on a Biotek Synergy HI Plate Reader.
Slopes from the twelve point curves were fit to a non-competitive, four variable inhibition curve in order to obtain IC50 values:
where X is Log10 [compound], Y is luminescence, Top and Bottom are the plateaus at Ymin and Ymax. […]

RIG-I [3] = molecular target: T1, RIG-I; test: IFN-β/Firefly dual-luciferase reporter assay in HEK 293T cells transfected with hRIG-I; format: cell-based; conditions: HEK293T cells, SLR14 challenge
Procedure: Two different assays were used for evaluating RIG-I inhibition in cells. In the first assay, HEK 293T cells were used to test the influence of compounds on RIG-I signaling activity while simultaneously reporting on relative toxicity. In this case, inhibitor compounds were introduced via growth media replacement rather than by direct addition to cell plates. Specifically, HEK 293T cells (which express RIG-I only under the control of a transfected plasmid) were grown and maintained in T75 flasks containing Dulbecco's Modified Eagle Medium, DMEM (Life Technologies) supplemented with 10% heat-inactivated fetal bovine serum (Hyclone) and non-essential amino acids (Life Technologies). For the IFN-β induction assays, 0.5 ml of cells at 65,000 cells/ml was placed (seeded) in 24-well plates. After 24 h, each well of cells was transfected with 5 ng WT pUNO-hRIG-I (Invivogen), 6 ng pRL-TK constitutive Renilla luciferase reporter plasmid (Promega) and 150 ng of an IFN-β/Firefly luciferase reporter plasmid using the Lipofectamine 2000 transfection reagent (Life Technologies) following the manufacturer's protocol. Protein expression was allowed to proceed for 24 hours. In parallel, a six-point dilution series of each compound of interest was made in a DMSO vehicle and then diluted further into DMEM such that a constant DMSO concentration of 1% is maintained over the entire drug dilution. The DMEM growth media was aspirated from each well of cells and replaced with DMEM that contains the drug. After 30 minutes, the cells were challenged by transfection with 1 μg of the synthetic stem-loop RNA (SLR14) in Lipofectamine 2000. After 5-6 hours, cells were harvested for luminescence analysis in the following manner: Growth media was aspirated from each well, and 100 μl of passive lysis buffer (Promega) was added. Lysis proceeded for 15 min at room temperature. Lysates were clarified by centrifugation, and 20 μl samples of the supernatant were transferred to a 96-well assay plate for analysis using the Dual-Luciferase Reporter Assay System (Promega). Luminescence was measured using a Biotek Synergy H1 plate reader. The resulting Firefly luciferase activity (i.e. the induction of IFN-0) was normalized to the activity of the constitutively expressed Renilla luciferase to account for differences in confluency, transfection efficiency and cell viability across sample wells.

[4] = SLR10-OH activated, mean ± standard deviation, 3 measurements, read-out: IC50

SMILES: CC1(C)C(=O)N=C2C1=C(O)C(=O)c1ccccc12 [RIG001, 4-Hydroxy-3,3-dimethyl-2H1,3H,5H1-benzo[g]indole-2,5-dione]
- IC50 (RIG-I [1]; read-out: IC50 value in the coupled assay system): 12000 ± 1000 nM
- IC50 (RIG-I [2]): 19000 ± 3000 nM

SMILES: O=C1C(OCc2ccccc2)=C2C(=NC(=O)C23CCCCC3)c2ccccc21 [RIG010, 4-(Benzyloxy)-2,5-dihydrospiro[benzo[g]indole-3,1′-cyclohexane]-2,5-dione]
- IC50 (RIG-I [1]; [4]): 4700 ± 300 nM

SMILES: COc1c2c(c3ccccc3c1OC)N(C)C(=O)C2(C)C [RIG003, 4,5-Dimethoxy-1,3,3-trimethyl-1H,2H,3H-benzo[g]indol-2-one]
- inhibition of RIG-I signaling / IFN induction, result in words (RIG-I [3]): did not influence levels of IFN induction or RIG-I response

SMILES: CC1(C)C(=O)N=C2C1=C(OCc1nc3ccccc3[nH]1)C(=O)c1ccccc12 [RIG008, 4-(1H-1,3-Benzodiazol-2-ylmethoxy)-3,3-dimethyl-2H,3H,5H-benzo[g]indole-2,5-dione]
- IC50 (RIG-I [1]; [4]): 1800 ± 300 nM

SMILES: COc1c2c(c3ccccc3c1OC)NC(=O)C2(C)C [RIG004, 4,5-Dimethoxy-3,3-dimethyl-1H,2H,3H-benzo[g]indol-2-one]
- RIG-I ATPase inhibition, result in words (RIG-I [1]): loss of function

SMILES: CC(C)COC1=C2C(=NC(=O)C2(C)C)c2ccccc2C1=O [RIG006, 4-(2,2-Dimethylethoxy)-3,3-dimethyl-2H,3H,5H-benzo[g]indole-2,5-dione]
- IC50 (RIG-I [1]; [4]): 2100 ± 200 nM

SMILES: CCC1(CC)C(=O)N=C2C1=C(O)C(=O)c1ccccc12 [RIG011, 3,3-Diethyl-4-hydroxy-2H,3H,5H-benzo[g]indole-2,5-dione]
- IC50 (RIG-I [1]; [4]): 890 ± 40 nM
- RIG-I ATPase inhibition, result in words (RIG-I [1]): nanomolar IC50 values

SMILES: COC1=C2C(=NC(=O)C2(C)C)c2ccccc2C1=O [RIG002, 4-Methoxy-3,3-dimethyl-2H,3H,5H-benzo[g]indole-2,5-dione]
- IC50 (RIG-I [1]; [4]): 6300 ± 600 nM

SMILES: CCOC1=C2C(=NC(=O)C2(C)C)c2ccccc2C1=O [RIG007, 4-Ethoxy-3,3-dimethyl-2H,3H,5H-benzo[g]indole-2,5-dione]
- IC50 (RIG-I [1]; [4]): 1800 ± 100 nM

SMILES: CC1(C)C(=O)N=C2C1=C(OCc1ccc3ccccc3c1)C(=O)c1ccccc12 [RIG013, 3,3-Dimethyl-4-(naphthalen-2-ylmethoxy)-2H,3H,5H-benzo[g]indole-2,5-dione]
- IC50 (RIG-I [3]; compound in growth medium, read-out: IC50, inhibition of RIG-I signaling (IFN induction luciferase)): 1360 nM
- IC50 (RIG-I [1]; [4]): 2100 ± 200 nM

SMILES: O=C1C(O)=C2C(=NC(=O)C23CCCCC3)c2ccccc21 [RIG009, 4-Hydroxy-2,5-dihydrospiro[benzo[g]indole-3,1′-cyclohexane]-2,5-dione]
- IC50 (RIG-I [1]; [4]): 2400 ± 300 nM

SMILES: CC1(C)C(=O)N=C2C1=C(OCc1ccccc1)C(=O)c1ccccc12 [RIG005, 4-Benzyloxy-3,3-dimethyl-2H,3H,5H-benzo[g]indole-2,5-dione]
- IC50 (RIG-I [1]; [4]): 2600 ± 200 nM
